Active and inactive are the calls of the source.
How the values were obtained:
Fatty acid synthase [1] = target: T1, Fatty acid synthase (Homo sapiens, UniProt P49327); test: FAS thioesterase domain inhibitors, dose response, biochemical, endpoint fluorescence intensity, uHTS hits (AID 624327); assay type: functional;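 note: fluorescence from hydrolysis of an O-methyl fluorescein acyl ester substrate by the enzyme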
Fatty acid synthase [2] = target: T1, Fatty acid synthase; test: FAS thioesterase domain inhibitors, dose response, biochemical, kinetic fluorescence intensity (AID 624326); assay type: functional;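 note: rate of fluorescence rise from hydrolysis of a fluorogenic O-methyl fluorescein ester substrate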
Major prion protein = Major prion protein (Homo sapiens, UniProt P04156); assay type: functional, cell-based
[3] = intracellular Trypanosoma cruzi inhibitors in host cells – cell-based, plate reader, cherry-pick samples, set 3, dose response (AID 651818); assay type: functional;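 note: compounds incubated with infected cells for about four days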
Albumin = Albumin (Bos taurus, UniProt P02769); test: Counterscreen for inhibitors of T-cell receptor (TCR)-CD3 interaction: Fluorescence-based biochemical high throughput dose response assay to identify inhibitors of T-cell receptor (TCR)-CD3 interaction using a TAMRA-labeled BSA probe.; assay type: functional
[4] = Luminescence Cell-Based Dose Confirmation HTS to Identify Activators of 5'UTR Stem-Loop Driven Alpha-Synuclein mRNA Translation in H4 Neuroglioblastoma Cells. [Related pubchem assays: 1829 (Project Summary), 1814 (Primary HTS)]; assay type: functional
[5] = Luminescence Cell-Based Dose Response HTS to Identify Activators of Luciferase Translation or Activity in H4 […] Cells. [Related pubchem assays: 1829 (Project Summary), 1814 (Primary HTS)]; assay type: functional
H4 = test: Luminescence Cell-Based Dose Response HTS to Identify Activators of 5'UTR Stem-Loop Driven Prion Protein mRNA Translation in H4 Neuroglioblastoma Cells. [Related pubchem assays: 1829 (Project Summary), 1814 (Primary HTS)]; assay type: functional; details: Homo sapiens
Mu-type opioid receptor = Mu-type opioid receptor (Homo sapiens, UniProt P35372); assay type: functional, cell-based;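 note: U2OS cells with beta-arrestin recruitment to OPRM1 by beta-gal complementation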
[6] = target: 5-hydroxytryptamine receptor 2A (Mus musculus, UniProt P35363); assay type: functional, cell-based;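 note: CHO-K1 cells with tagged receptor and beta-arrestin; agonist potency measured as compound-induced activation of the receptor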
[7] = inhibitors of firefly luciferase expression or activity, dose response, H4 neuroglioma cells, luminescence (AID 1990); assay type: functional, cell-based
[8] = tested on: Streptococcus sp. 'group A'; test: growth inhibition of control SK(-) GAS strain, dose response, counter-screen for streptokinase expression inhibitor project, luminescence, kanamycin, BacTiterGlo, confirmation (AID 1900); assay type: functional, organism-based
[9] = Luminescence Cell-Based Dose Response HTS to Identify Inhibitors of 5'UTR Stem-Loop Driven Prion Protein mRNA Translation in H4 Neuroglioblastoma Cells. [Related pubchem assays: 1827 (Project Summary), 1813 (Primary HTS)]; assay type: functional
[10] = inhibitors of SNCA 5'UTR-driven reporter translation, confirmation, H4 neuroglioma cells, luminescence (AID 1988); assay type: functional, cell-based
Streptococcus = test: Group A Streptococcus viability loss, dose response, counter-screen for streptokinase expression inhibitor project, luminescence, BacTiterGlo (AID 1915); assay type: functional, organism-based;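 note: potency for reduction of bacterial viability or growth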
HEK293 = test: inhibitors of LMP1-driven NF-kB reporter, dose response, cell-based, HEK293, luciferase, cherry-pick (AID 588343); assay type: functional; details: Homo sapiens
INS1 = test: beta cell apoptosis inhibitors, cytokine rescue, dose response, luminescence, retest (AID 449756); assay type: functional, cell-based; details: Rattus norvegicus;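 note: cell death triggered by IL-1 beta plus TNF-alpha plus IFN-gamma mixture; protective hits raise ATP signal compared with cytokine alone wells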
[11] = inhibitors of HIV Env-driven cell fusion, dose response, cherry-pick (AID 652057); assay type: functional, cell-based
[12] = CEM21 lymphoblast cell cytotoxicity, dose response, cytotoxicity control for viral fusion inhibitor project, CellTiter-Glo luminescence, cherry-picked (AID 652042); assay type: functional, cell-based;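 note: potency for signal decrease meaning cytotoxicity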
[13] = ZM109 Env clade C HIV-1 fusion inhibitors, dose response, HeLa effector, CEM target cells, luciferase, cherry-pick (AID 652058); assay type: functional, cell-based
[14] = inhibitors of clade B AD8 Env fusion, dose response, cell-based, cherry-pick (AID 652062); assay type: functional;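 note: luciferase signal from cell-cell fusion driven by HIV-1 clade B AD8 Env; potency is for inhibitors of fusion seen as a drop in luminescence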

Compound: Cc1ccc2[nH]c(SCC(=O)Nc3ccc(F)c([N+](=O)[O-])c3)nc2c1
- IC50 (Fatty acid synthase [1]): 6.64 µM (active)
- IC50 (Fatty acid synthase [2]): 8 µM (active)

Compound: CN1C(=O)C(C)(C)c2cc(S(=O)(=O)N3CCCC(C(=O)Nc4ccc(Cl)cc4)C3)ccc21 (centres undefined)
- IC50 (Major prion protein): 5.86 µM (active)
- IC50 (cells): > 138 µM (inactive)

Compound: COc1cc(OC)c(N2CC(C(=O)NCCC3=CCCCC3)CC2=O)cc1Cl (centres undefined)
- IC50 (Fatty acid synthase [1]): 9.83 µM (active)
- IC50 (Fatty acid synthase [2]): 11.8 µM (active)

Compound: N#CC(CCc1ccccc1[N+](=O)[O-])(CCc1ccccc1[N+](=O)[O-])C(N)=O
- IC50 (Fatty acid synthase [1]): 11.4 µM (active)
- IC50 (Fatty acid synthase [2]): 12 µM (active)

Compound: C[C@@H]1CN([C@@H](C)CO)C(=O)Cc2cc(NC(=O)Nc3ccc(F)cc3)ccc2O[C@@H]1CN(C)Cc1ccc(C(F)(F)F)cc1
- AC50 [3]: 4.91 µM (active)

Compound: C[C@H](CO)N1C[C@H](C)[C@@H](CN(C)Cc2ccncc2)Oc2c(NC(=O)c3ccc(-c4nccs4)cc3)cccc2C1=O
- AC50 [3]: 20 µM (inactive)

Compound: CC1(C(=O)Nc2ccc(Cl)c(Cl)c2)CCN1C(=O)CC1CCCC1 (centres undefined)
- IC50 (Fatty acid synthase [1]): 8.5 µM (active)
- IC50 (Fatty acid synthase [2]): 4.39 µM (active)

Compound: COc1ccccc1C(=O)NNC(=O)c1ccc2ccccc2c1O
- IC50 (Albumin): > 94.2 µM (inactive)

Compound: C[C@H]1CN([C@@H](C)CO)C(=O)Cc2cc(NC(=O)Nc3cccc4ccccc34)ccc2O[C@@H]1CN(C)Cc1ccc(-c2ccccc2)cc1
- AC50 [3]: 7.08 µM (active)

Compound: Cc1noc(C)c1S(=O)(=O)Nc1ccc2c(c1)CC(=O)N([C@H](C)CO)C[C@@H](C)[C@@H](CN(C)Cc1ccc(C(F)(F)F)cc1)O2
- AC50 [3]: 5.96 µM (active)

Compound: C[C@H](CO)N1C[C@H](C)[C@H](CN(C)Cc2ccc(C(F)(F)F)cc2)Oc2ccc(NC(=O)Nc3cccc4ccccc34)cc2CC1=O
- AC50 [3]: 1.05 µM (active)

Compound: Brc1ccc2nc(-c3ccc(CN4CCC5(CC4)CNc4ccccc45)cc3)c(-c3ccccc3)nc2c1
- IC50 (Major prion protein): 7.84 µM (active)
- IC50 (cells): > 138 µM (inactive)

Compound: CN1CCc2c(sc(/N=C/c3cc(Cl)ccc3O)c2C#N)C1
- EC50 [4]: 7.13 µM (active)
- EC50 [5]: 5.07 µM (active)
- EC50 (H4): 34.8 µM (active)
- EC50 (Mu-type opioid receptor): 92.4 µM (inactive)
- EC50 [6]: 76.1 µM (inactive)

Compound: CCCc1cc(=O)n2ncc(-c3ccc(Cl)cc3)c2[nH]1
- EC50 [7]: 11.6 µM (active)
- EC50 [8]: 1.71 µM (active)
- EC50 [9]: 12.3 µM (active)
- EC50 [10]: 10.9 µM (active)
- EC50 (Streptococcus): 5.62 µM (active)
- AC50 (HEK293): 4.07 µM (active)
- AC50 (INS1): 5.79 µM (active)
- AC50 [11]: 2.65 µM (active)
- AC50 [12]: 4.59 µM (active)
- AC50 [13]: 7.51 µM (active)
- AC50 [14]: 11.2 µM (active)

— ChEMBL document CHEMBL1201862, “PubChem BioAssay data set” (2004)
